The target in series [1] is T1, Mitogen-activated protein kinase 3 (Homo sapiens, UniProt P27361). Nature of the series: Inhibition of ERK1 (unknown origin) after 45 mins by IMAP assay.
Series [2] has as its target T1, Mitogen-activated protein kinase 3. Nature of the series: Competitive inhibition of ERK1 (unknown origin) in presence of ATP.
Series [3] has as its system Homo sapiens. Nature of the series: In vivo inhibition of B-RAF in inhibitor-pretreated patient relative to control. Format: functional.
For series [4], the system named is Homo sapiens. Nature of the series: In vivo inhibition of B-RAF in naive patient relative to control. The series is classed as functional.
Series [5] concerns Homo sapiens. Briefly: Toxicity in patient administered daily. Format: organism-based. As to conditions: in vivo.
For series [6], the target named is Serine/threonine-protein kinase B-raf (Homo sapiens) (UniProt P15056). Nature of the series: Binding affinity to B-RAF (unknown origin) assessed as dissociation half life.
Series [7] in a line: Plasma half life in po dosed Sprague-Dawley rat. The series is classed as ADME, organism-based.
Series [8] in a line: Effective half life in patient. Format: ADME, organism-based. To be noted: human, in vivo; read-out: t1/2eff.

Some results are limits rather than exact numbers.

T1 sequence (P27361 whole entry): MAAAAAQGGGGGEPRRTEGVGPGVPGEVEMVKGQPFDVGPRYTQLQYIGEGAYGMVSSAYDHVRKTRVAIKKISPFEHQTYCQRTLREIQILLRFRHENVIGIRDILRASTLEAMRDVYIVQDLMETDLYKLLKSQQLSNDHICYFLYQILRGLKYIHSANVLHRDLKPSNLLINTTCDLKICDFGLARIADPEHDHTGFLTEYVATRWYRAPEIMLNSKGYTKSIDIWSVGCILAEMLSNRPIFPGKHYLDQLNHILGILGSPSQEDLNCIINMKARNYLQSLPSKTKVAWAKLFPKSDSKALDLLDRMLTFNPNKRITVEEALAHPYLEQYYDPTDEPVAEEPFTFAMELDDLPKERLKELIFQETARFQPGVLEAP
Chain of Serine/threonine-protein kinase B-raf (Homo sapiens) (P15056 whole entry): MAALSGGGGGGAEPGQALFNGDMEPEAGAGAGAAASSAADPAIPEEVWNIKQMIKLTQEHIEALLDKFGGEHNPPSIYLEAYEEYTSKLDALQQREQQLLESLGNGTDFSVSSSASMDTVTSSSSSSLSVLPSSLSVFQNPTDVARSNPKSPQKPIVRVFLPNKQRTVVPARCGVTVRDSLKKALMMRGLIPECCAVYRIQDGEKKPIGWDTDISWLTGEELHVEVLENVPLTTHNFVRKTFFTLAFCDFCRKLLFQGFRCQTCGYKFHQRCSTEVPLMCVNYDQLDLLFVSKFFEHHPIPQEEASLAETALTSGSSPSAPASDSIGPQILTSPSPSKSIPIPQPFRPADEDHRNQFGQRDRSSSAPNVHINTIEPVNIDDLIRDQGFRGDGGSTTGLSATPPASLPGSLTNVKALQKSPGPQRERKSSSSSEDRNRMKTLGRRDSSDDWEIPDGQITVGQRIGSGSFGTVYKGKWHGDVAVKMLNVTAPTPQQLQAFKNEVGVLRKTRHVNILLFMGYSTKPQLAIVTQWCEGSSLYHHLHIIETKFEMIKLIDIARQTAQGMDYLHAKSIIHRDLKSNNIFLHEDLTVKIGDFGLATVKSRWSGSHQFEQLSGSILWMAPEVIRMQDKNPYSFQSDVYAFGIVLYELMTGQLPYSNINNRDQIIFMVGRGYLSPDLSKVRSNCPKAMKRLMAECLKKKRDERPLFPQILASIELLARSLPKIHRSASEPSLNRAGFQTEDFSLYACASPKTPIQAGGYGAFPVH

For the molecule `O=C(Nc1ccc2[nH]nc(-c3ccncc3)c2c1)[C@@H]1CCN(CC(=O)N2CCN(c3ccc(-c4ncccn4)cc3)CC2)C1`, the IC50 in series [1] worked out at 4 nM.

As to `CC(C)Nc1cc(-c2c[nH]c(C(=O)N[C@H](CO)c3cccc(Cl)c3)c2)c(Cl)cn1`, in series [2], the INH worked out at 300 pM.

Consider `Cn1cnc2c(F)c(Nc3ccc(Br)cc3F)c(C(=O)NOCCO)cc21` [BINIMETINIB], for which the “inhibition (INH)” value was 18% in the series on Homo sapiens [3] and 88% in the series on Homo sapiens [4].

Take `COC(=O)N[C@@H](C)CNc1nccc(-c2cn(C(C)C)nc2-c2cc(Cl)cc(NS(C)(=O)=O)c2F)n1` [ENCORAFENIB]: the results for the “inhibition (INH)” value in the series on Homo sapiens [3] and in the series with Homo sapiens [4] were 11% and 58%, respectively. Further, the MTD in the series on Homo sapiens [5] is 600 mg. In addition, in series [6], the T1/2 was more than 24 h.

As to `CC(=O)Nc1cccc(-n2c(=O)n(C3CC3)c(=O)c3c(Nc4ccc(I)cc4F)n(C)c(=O)c(C)c32)c1` [TRAMETINIB], the figures for the half-life in series [7] and in series [8] were more than 30 h and more than 40 h, respectively.

What is called IC50 is the concentration needed to halve the response being measured. Higher therefore signals lower potency.

Values taken from ChEMBL document CHEMBL3616393, “Recent progress on MAP kinase pathway inhibitors” (Bioorg Med Chem Lett, 2015).
